{"source": "patent US5630978A", "about": "“Preparation of biologically active molecules by molecular imprinting” (Yissum Research Development Co. of The Hebrew University of …, priority 1995, dated 1997)", "system": "extracellular matrix (ECM) bound FGF", "assay": "Release of extracellular matrix (ECM) bound FGF", "type": "biochemical", "protocol": "The polymers were tested according to the method of Vlodavsky [Vlodavsky, I., Bar-Shavit, R., Korner, G., and Foks, Z., Extracellular matrix-bound growth factors, enzymes, and plasma proteins, in Molecular and cellular aspects of basement membrane, Academic Press, 327-343 (1993)]. Release of ECM bound bFGF was low (15%) at the concentration range between 1 and 25 mg/ml for N-acryl-4-hydroxyproline based polymers. Under the same conditions, heparin released about 80% of the ECM bound bFGF at a concentration of 2 to 25 mg/ml."}
{"substance": "heparin", "values": [{"measurement": "released extracellular matrix (ECM) bound FGF", "value": 80, "unit": "%"}, {"measurement": "Release of ECM bound bFGF", "setting": "concentration of 2 to 25 mg/ml", "value": "about 80%"}]}
